# Results from patent publication US20240327429A1, “[1,3]Thiazolo[4,5-d]-pyrimidon-7-ones as inhibitors of NOX4” (Boehringer Ingelheim International GmbH, priority 2023, published 2024).
# Columns and labels:
# NOX2 = target: T1, NOX2 (Homo sapiens, UniProt P04839); experiment: NOX2 inhibition assay (L-012), human blood-derived granulocytes; assay type: cell-based; settings: fMLP/PMA stimulated
# T1 construct: endogenous in cells; host or cells: freshly isolated human blood-derived granulocytes
# T1 sequence (P04839 2-570 limits assumed): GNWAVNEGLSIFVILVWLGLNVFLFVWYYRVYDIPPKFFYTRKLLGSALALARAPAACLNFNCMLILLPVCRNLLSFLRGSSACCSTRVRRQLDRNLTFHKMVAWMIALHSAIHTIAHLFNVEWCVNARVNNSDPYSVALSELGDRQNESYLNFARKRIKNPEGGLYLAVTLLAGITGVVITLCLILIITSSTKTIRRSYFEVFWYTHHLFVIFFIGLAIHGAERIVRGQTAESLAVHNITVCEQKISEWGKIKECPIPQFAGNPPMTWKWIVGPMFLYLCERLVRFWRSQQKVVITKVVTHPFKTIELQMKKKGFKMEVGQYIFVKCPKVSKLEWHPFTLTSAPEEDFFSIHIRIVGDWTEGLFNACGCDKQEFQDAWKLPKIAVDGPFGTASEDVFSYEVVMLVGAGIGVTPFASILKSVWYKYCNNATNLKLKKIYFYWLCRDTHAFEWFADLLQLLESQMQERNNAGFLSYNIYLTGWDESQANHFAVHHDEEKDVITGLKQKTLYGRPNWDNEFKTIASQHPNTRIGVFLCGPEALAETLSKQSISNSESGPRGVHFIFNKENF
# T1 sequence (P13498 2-195 partner limits assumed): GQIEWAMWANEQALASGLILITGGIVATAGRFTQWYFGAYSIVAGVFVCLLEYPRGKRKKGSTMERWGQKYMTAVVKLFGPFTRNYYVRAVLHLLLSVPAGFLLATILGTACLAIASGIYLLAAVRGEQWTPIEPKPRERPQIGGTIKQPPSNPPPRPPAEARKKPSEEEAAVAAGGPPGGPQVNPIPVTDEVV
# Procedure: Evaluation of the NOX4 inhibitors on NOX2 activity is assessed in human blood-derived granulocytes.
# Afterwards, freshly isolated granulocytes are added to the wells containing the compounds in assay buffer and incubated for 1 h at 37° C. Next, a solution of Nformylmethionine-leucyl-phenylalanine (fMLP; 730 nM), phorbol myristate acetate (PMA, 100 nM) (stimuli of ROS production) and L-012 (200 μM, ROS indicator) is added to the wells and the cells are incubated for additional 30 mins at 37° C. Afterwards luminescence is measured in a SpectraMax M5 microplate reader.
# human NOX5 (hNOX5) = target: T2, human NOX5 (hNOX5) (Homo sapiens, UniProt Q96PH1); experiment: NOX5 inhibition assay (L-012), HEK293 cells stably overexpressing human NOX5; assay type: cell-based; settings: HEK293-hNOX5, PMA stimulated
# T2 construct: expressed in transfected cells; host or cells: HEK293
# T2 sequence (Q96PH1 1-765): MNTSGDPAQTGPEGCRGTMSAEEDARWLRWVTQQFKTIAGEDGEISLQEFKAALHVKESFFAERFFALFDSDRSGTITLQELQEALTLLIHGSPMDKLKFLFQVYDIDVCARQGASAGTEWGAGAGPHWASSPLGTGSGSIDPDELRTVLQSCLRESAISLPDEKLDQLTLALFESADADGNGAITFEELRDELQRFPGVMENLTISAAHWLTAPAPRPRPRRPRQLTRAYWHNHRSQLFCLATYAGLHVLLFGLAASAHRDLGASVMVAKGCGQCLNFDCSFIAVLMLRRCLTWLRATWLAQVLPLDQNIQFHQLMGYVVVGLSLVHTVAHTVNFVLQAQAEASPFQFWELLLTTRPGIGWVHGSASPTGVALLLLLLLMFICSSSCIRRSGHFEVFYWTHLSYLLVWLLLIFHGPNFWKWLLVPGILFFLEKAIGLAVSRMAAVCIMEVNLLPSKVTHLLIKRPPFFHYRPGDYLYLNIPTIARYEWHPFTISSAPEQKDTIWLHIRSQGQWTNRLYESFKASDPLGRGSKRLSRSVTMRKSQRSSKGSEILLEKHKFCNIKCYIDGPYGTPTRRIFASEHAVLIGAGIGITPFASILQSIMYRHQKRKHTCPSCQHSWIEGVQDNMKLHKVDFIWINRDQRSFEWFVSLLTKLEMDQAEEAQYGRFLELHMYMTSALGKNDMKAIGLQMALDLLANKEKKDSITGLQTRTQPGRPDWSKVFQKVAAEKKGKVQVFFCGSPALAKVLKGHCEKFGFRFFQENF
# Procedure: The synthetic gene hNOX5 (Accession: Q96PH1) is cloned into pcDNA3.1_Zeo. […] The final construct is verified by sequencing.
# Evaluation of the NOX4 inhibitors on NOX5 activity is assessed in HEK293 cells stably overexpressing human NOX5 (hNOX5).
# Cells are seeded in 384 well plates over-night. […] Cells are then stimulated with PMA at 0.1 μM to induce NOX5-dependent ROS production. […] Luminescence is measured with an PHERAstar multimode reader.
IC50 (NOX2),IC50 (human NOX5 (hNOX5)),Compound
> 100 µM,> 100 µM,Cc1cc(F)ccc1CSc1nc2ncsc2c(=O)n1-c1cnc(O)c(F)c1 [Example 36]
> 100 µM,> 100 µM,O=c1c2scnc2nc(SCc2ccc(Cl)cc2)n1-c1ccc(O)nc1 [Example 25]
> 100 µM,> 100 µM,"O=c1c2scnc2nc(SCc2ccc(Cl)cc2F)n1-c1cnc(O)nc1 [Example 53, 5-((4-Chloro-2-fluorobenzyl)thio)-6-(2-hydroxypyrimidin-5-yl)thiazolo[4,5-d]pyrimidin-7(6H)-one]"
> 100 µM,> 100 µM,"O=c1c2scnc2nc(SCc2c(F)cc(F)cc2F)n1-c1cnc(O)c(Cl)c1 [Example 48, 6-(5-Chloro-6-hydroxypyridin-3-yl)-5-((2,4,6-trifluorobenzyl)thio)thiazolo[4,5-d]pyri-midin-7(6H)-one]"
> 100 µM,> 100 µM,"O=c1c2scnc2nc(SCc2c(F)cc(F)cc2F)n1-c1cnc(O)cc1F [Example 49, 6-(4-Fluoro-6-hydroxypyridin-3-yl)-5-((2,4,6-trifluorobenzyl)thio)thiazolo[4,5-d]pyrimidin-7(6H)-one]"
> 100 µM,46.5 µM,O=c1c2scnc2nc(SCc2ccc(Br)cc2F)n1-c1cnc(O)c(F)c1 [Example 34]
> 100 µM,> 100 µM,O=c1c2scnc2nc(SCc2ccc(C(F)(F)F)cc2)n1-c1cnc(O)nc1 [Example 60]
10.3 µM,> 100 µM,Cc1cc(F)cc(C)c1CSc1nc2ncsc2c(=O)n1-c1ccc(O)nc1 [Example 24]
> 100 µM,> 100 µM,Cc1cc(Cl)ccc1CSc1nc2ncsc2c(=O)n1-c1ccc(O)nn1 [Example 62]
> 30 µM,11.5 µM,"O=c1c2scnc2nc(SCc2c(F)cc(F)cc2F)n1-c1cc(F)c(O)cc1F [Example 10, 6-(2,5-Difluoro-4-hydroxyphenyl)-5-((2,4,6-trifluorobenzyl)thio)thiazolo[4,5-d]pyrimidin-7(6H)-one]"
> 100 µM,32.7 µM,O=c1c2scnc2nc(SCc2c(F)cc(F)cc2F)n1-c1cc(F)c(O)cn1 [Example 20]
> 100 µM,44.7 µM,O=c1c2scnc2nc(SCc2ccc(C(F)(F)F)cc2Cl)n1-c1cnc(O)c(F)c1 [Example 46]
> 30 µM,–,O=c1c2scnc2nc(SCc2c(F)cc(F)cc2F)n1-c1ccc(O)c(F)c1F [Example 12]
> 100 µM,> 100 µM,"O=c1c2scnc2nc(SCc2c(F)cc(F)cc2F)n1-c1ncc(O)cn1 [Example 21, 6-(5-Hydroxypyrimidin-2-yl)-5-((2,4,6-trifluorobenzyl)thio)thiazolo[4,5-d]pyrimidin-7(6H)-one]"
> 100 µM,> 100 µM,O=c1c2scnc2nc(SCc2ccc(C(F)(F)F)cc2)n1-c1cc(F)c(O)c(F)c1 [Example 7]
> 100 µM,> 100 µM,O=c1c2scnc2nc(SCc2ccc(Cl)cc2)n1-c1ccc(O)nn1 [Example 64]
84.6 µM,5.1 µM,O=c1c2scnc2nc(SCc2c(F)cc(F)cc2F)n1-c1c(F)cc(O)cc1F [Example 13]
13.4 µM,10.2 µM,O=c1c2scnc2nc(SCc2c(F)cc(F)cc2F)n1-c1ccc(O)cc1F [Example 14]
> 100 µM,65.5 µM,O=c1c2scnc2nc(SCc2ccc(Cl)cc2F)n1-c1cnc(O)c(F)c1 [Example 35]
> 100 µM,> 100 µM,"O=c1c2scnc2nc(SCc2ccc(Cl)cc2F)n1-c1cc(F)c(O)c(F)c1 [Example 2, 5-((4-Chloro-2-fluorobenzyl)thio)-6-(3,5-difluoro-4-hydroxyphenyl)thiazolo[4,5-d]-pyrimidin-7(6H)-one]"

IC50 (NOX2),IC50 (human NOX5 (hNOX5)),Compound
> 100 µM,57.4 µM,O=c1c2scnc2nc(SCc2ccc(C(F)(F)F)cc2F)n1-c1ccc(O)nc1 [Example 26]
> 100 µM,> 100 µM,"O=c1c2scnc2nc(SCc2c(F)cc(F)cc2F)n1-c1cnc(O)cn1 [Example 69, 6-(5-Hydroxypyrazin-2-yl)-5-((2,4,6-trifluorobenzyl)thio)thiazolo[4,5-d]pyrimidin-7(6H)-one]"
> 30 µM,94.8 µM,O=c1c2scnc2nc(SCc2ccc(F)cc2)n1-c1ccc(O)nc1 [Example 30]
> 30 µM,> 100 µM,O=c1c2scnc2nc(SCc2c(F)cc(F)cc2F)n1-c1ccc(O)nn1 [Example 67]
> 100 µM,38.9 µM,"O=c1c2scnc2nc(SCc2c(F)cc(F)cc2F)n1-c1cnc(O)c(F)c1F [Example 52, 6-(4,5-Difluoro-6-hydroxypyridin-3-yl)-5-((2,4,6-trifluorobenzyl)thio)thiazolo[4,5-d]-pyrimidin-7(6H)-one]"
> 100 µM,93.3 µM,O=c1c2scnc2nc(SCc2ccc(C(F)(F)F)cc2)n1-c1ccc(O)nc1 [Example 27]
46 µM,> 100 µM,Cc1cc(F)cc(C)c1CSc1nc2ncsc2c(=O)n1-c1ccc(O)nn1 [Example 63]
> 100 µM,68.1 µM,O=c1c2scnc2nc(SCc2ccc(F)cc2Br)n1-c1cnc(O)c(F)c1 [Example 44]
> 100 µM,64.5 µM,Cc1cc(Cl)ccc1CSc1nc2ncsc2c(=O)n1-c1cnc(O)c(F)c1 [Example 37]
> 100 µM,55.7 µM,"O=c1c2scnc2nc(SCc2ccc(C(F)(F)F)cc2)n1-c1cnc(O)c(F)c1 [Example 32, 6-(5-Fluoro-6-hydroxypyridin-3-yl)-5-((4-(trifluoromethyl)benzyl)thio)thiazolo[4,5-d]pyrimidin-7(6H)-one]"
> 100 µM,> 100 µM,O=c1c2scnc2nc(SCc2ccc(Cl)cc2)n1-c1cnc(O)c(F)c1 [Example 33]
> 100 µM,36 µM,O=c1c2scnc2nc(SCc2c(F)cc(F)cc2F)n1-c1ccc(O)c(Cl)c1 [Example 16]
> 100 µM,> 100 µM,O=c1c2scnc2nc(SCc2ccc(Cl)cc2)n1-c1cnc(O)nc1 [Example 56]
> 100 µM,> 100 µM,"O=c1c2scnc2nc(SCc2ccc(Cl)cc2F)n1-c1ccc(O)nn1 [Example 61, 5-((4-Chloro-2-fluorobenzyl)thio)-6-(6-hydroxypyridazin-3-yl)thiazolo[4,5-d]pyrimidin-7(6H)-one]"
> 100 µM,85.8 µM,Cc1cc(F)cc(C)c1CSc1nc2ncsc2c(=O)n1-c1cnc(O)nc1 [Example 55]
> 100 µM,47.6 µM,Cc1cc(Cl)ccc1CSc1nc2ncsc2c(=O)n1-c1cnc(O)nc1 [Example 54]
> 100 µM,79 µM,O=c1c2scnc2nc(SCc2c(F)ccc(F)c2F)n1-c1cnc(O)c(F)c1 [Example 45]
39.3 µM,35.8 µM,O=c1c2scnc2nc(SCc2c(F)cc(F)cc2Cl)n1-c1cnc(O)c(F)c1 [Example 41]
–,17.5 µM,O=c1c2scnc2nc(SCc2c(F)cc(F)cc2F)n1-c1ccc(O)cc1Cl [Example 17]
